US11020395B2, “Cycloalkyl substituted triazole compounds as agonists of the APJ receptor” (AMGEN INC., priority 2016, dated 2021)

molecular target: human APJ receptor (Homo sapiens (Human), UniProt P35414); test: [35S]GTPγS binding assay on membranes from CHO cells stably expressing human APJ receptor; type: biochemical; conditions: [35S]GTPγS SPA, read-out: Activity hAPJ SPA EC50 IP
In short: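 Membranes from CHO cells stably expressing FLAG-tagged human APJ were incubated with [35S]GTPγS in buffer with optimized GDP, MgCl2 and NaCl, 90 min at RT. EC50 values derived by non-linear regression, averaged over several independent experiments.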

Sequence of human APJ receptor (P35414 whole entry): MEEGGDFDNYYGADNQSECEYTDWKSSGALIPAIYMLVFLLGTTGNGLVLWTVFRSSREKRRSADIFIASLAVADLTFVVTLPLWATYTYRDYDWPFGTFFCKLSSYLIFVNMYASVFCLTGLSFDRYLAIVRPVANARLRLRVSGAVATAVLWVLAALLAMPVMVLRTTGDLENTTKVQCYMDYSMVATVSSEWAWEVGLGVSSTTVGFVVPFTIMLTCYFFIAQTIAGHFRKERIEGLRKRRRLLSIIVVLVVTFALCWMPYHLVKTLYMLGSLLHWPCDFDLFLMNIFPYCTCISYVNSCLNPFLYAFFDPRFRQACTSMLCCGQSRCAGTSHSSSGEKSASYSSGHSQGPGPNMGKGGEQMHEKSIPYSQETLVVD

Compared with COc1ncnc(OC)c1-n1c(NS(=O)(=O)[C@@H](C)[C@H](C)c2ccc(Cl)cn2)nnc1C1CCC1 [Example 87.0, (2S,3R)-3-(5-chloro-2-pyridinyl)-N-(5-cyclobutyl-4-(4,6-dimethoxy-5-pyrimidinyl)-4H-1,2,4-triazol-3-yl)-2-butanesulfonamide], COCC1(n2c(NS(=O)(=O)[C@@H](C)[C@H](OC)c3ncc(Cl)cn3)nnc2[C@H]2C[C@H](CO)C2)CC1 (single isomer, unassigned) [Example 132.0, (1R,2S)-1-(5-chloro-2-pyrimidinyl)-N-(5-(trans-3-(hydroxymethyl)cyclobutyl)-4-(1-(methoxymethyl)cyclopropyl)-4H-1,2,4-triazol-3-yl)-1-methoxy-2-propanesulfonamide or (1R,2S)-1-(5-chloro-2-pyrimidinyl)-N-(5-(cis-3-(hydroxymethyl)cyclobutyl)-4-(1-(methoxymethyl)cyclopropyl)-4H-1,2,4-triazol-3-yl)-1-methoxy-2-propanesulfonamide] is 640-fold higher in EC50: 2 nM for the first, 1270 nM for the second. The first is the more potent here.

Going from COc1cccc(OC)c1-n1c(NS(=O)(=O)[C@@H](C)[C@H](OC)c2ncc(Cl)cn2)nnc1[C@H]1C[C@@](C)(F)C1 (single isomer, unassigned) [Example 198.0, (1R,2S)-1-(5-chloropyrimidin-2-yl)-N-(4-(2,6-dimethoxyphenyl)-5-((1s,3R)-3-fluoro-3-methylcyclobutyl)-4H-1,2,4-triazol-3-yl)-1-methoxypropane-2-sulfonamide or ((1R,2S)-1-(5-chloropyrimidin-2-yl)-N-(4-(2,6-dimethoxyphenyl)-5-((1r,3S)-3-fluoro-3-methylcyclobutyl)-4H-1,2,4-triazol-3-yl)-1-methoxypropane-2-sulfonamide] to COc1cccc(OC)c1-n1c(NS(=O)(=O)[C@@H](C)[C@H](OC)c2ncc(Cl)cn2)nnc1C1CCCC1 [Example 241.0, (1R,25)-1-(5-chloro-2-pyrimidinyl)-N-(5-cyclopentyl-4-(2,6-dimethoxyphenyl)-4H-1,2,4-triazol-3-yl)-1-methoxy-2-propanesulfonamide], the EC50 falls from 3.7 nM to 1.2 nM (3.1-fold). The second is the more potent here.

Going from COc1ncnc(OC)c1-n1c(NS(=O)(=O)[C@@H](C)[C@H](OC)c2ncc(Cl)cn2)nnc1[C@H]1C[C@]2(CC2(F)F)C1 (single isomer, unassigned) [Example 205.0, (1R,2S)-1-(5-chloropyrimidin-2-yl)-N-(5-((3R,5s)-1,1-difluorospiro[2.3]hexan-5-yl)-4-(4,6-dimethoxypyrimidin-5-yl)-4H-1,2,4-triazol-3-yl)-1-methoxypropane-2-sulfonamide or (1R,2S)-1-(5-chloropyrimidin-2-yl)-N-(5-((3S,5r)-1,1-difluorospiro[2.3]hexan-5-yl)-4-(4,6-dimethoxypyrimidin-5-yl)-4H-1,2,4-triazol-3-yl)-1-methoxypropane-2-sulfonamide] to COc1ncnc(OC)c1-n1c(NS(=O)(=O)[C@@H](C)[C@H](C)c2ncc(Cl)cn2)nnc1[C@@H]1CC[C@@H]1C(F)F (stereo in doubt) [Example 166.0], the EC50 rises from 5.5 nM to 20 nM (3.6-fold).

Going from COc1ncnc(OC)c1-n1c(NS(=O)(=O)[C@@H](C)[C@H](OC)c2ncc(Cl)cn2)nnc1[C@H]1C[C@H](C)C1 [Example 185.0, (1R,2S)-1-(5-chloro-2-pyrimidinyl)-N-(4-(4,6-dimethoxy-5-pyrimidinyl)-5-(trans-3-methylcyclobutyl)-4H-1,2,4-triazol-3-yl)-1-methoxy-2-propanesulfonamide] to COc1cccc(OC)c1-n1c(NS(=O)(=O)[C@@H](C)[C@H](OC)c2ncc(Cl)cn2)nnc1[C@H]1C[C@H](C)C1 [Example 148.0, (1R,2S)-1-(5-chloropyrimidin-2-yl)-N-(4-(2,6-dimethoxyphenyl)-5-((1r,3S)-3-methylcyclobutyl)-4H-1,2,4-triazol-3-yl)-1-methoxypropane-2-sulfonamide and (1R,2S)-1-(5-chloropyrimidin-2-yl)-N-(4-(2,6-dimethoxyphenyl)-5-((1r,3R)-3-methylcyclobutyl)-4H-1,2,4-triazol-3-yl)-1-methoxypropane-2-sulfonamide], the EC50 falls from 2.7 nM to 1.1 nM (2.5-fold). The second is the more potent here.

Compared with COc1cccc(OC)c1-n1c(NS(=O)(=O)[C@@H](C)[C@@H](OC(C)C)c2ncc(C)cn2)nnc1C1CCC1 [Example 142.0], “(1R,2S)-1-(5-chloropyrimidin-2-yl)-N-(4-(4,6-dimethoxypyrimidin-5-yl)-5-((R)-6-oxaspiro[2.5]octan-1-yl)-4H-1,2,4-triazol-3-yl)-1-methoxypropane-2-sulfonamide or (1R,2S)-1-(5-chloropyrimidin-2-yl)-N-(4-(4,6-dimethoxypyrimidin-5-yl)-5-((S)-6-oxaspiro[2.5]octan-1-yl)-4H-1,2,4-triazol-3-yl)-1-methoxypropane-2-sulfonamide [Example 102.0]” is 31-fold higher in EC50: 5.1 nM for the first, 160 nM for the second. The first is the more potent here.

First: CO[C@H](c1ncc(Cl)cn1)[C@H](C)S(=O)(=O)Nc1nnc(C2CCC2)n1C1CCOCC1 [Example 97.0, (1R,2S)-1-(5-chloropyrimidin-2-yl)-N-(5-cyclobutyl-4-(tetrahydro-2H-pyran-4-yl)-4H-1,2,4-triazol-3-yl)-1-methoxypropane-2-sulfonamide]
Second: COc1ncnc(OC)c1-n1c(NS(=O)(=O)[C@@H](C)[C@H](OC)c2ncc(C)cn2)nnc1C1CCC1 [Example 90.0, (1R,2S)-N-(5-cyclobutyl-4-(4,6-dimethoxypyrimidin-5-yl)-4H-1,2,4-triazol-3-yl)-1-methoxy-1-(5-methylpyrimidin-2-yl)propane-2-sulfonamide]
The EC50 of the first is 40-fold higher: 370 nM for the first, 9.2 nM for the second. The second is the more potent here.

COc1ncnc(OC)c1-n1c(NS(=O)(=O)[C@@H](C)[C@@H](OC(C)C)c2ncc(Cl)cn2)nnc1[C@@H]1CC[C@@H]1C(F)F (single isomer, unassigned) [Example 167.0, (1S,2S)-1-(5-chloropyrimidin-2-yl)-N-(5-((1R,2S)-2-(difluoromethyl)cyclobutyl)-4-(4,6-dimethoxypyrimidin-5-yl)-4H-1,2,4-triazol-3-yl)-1-isopropoxypropane-2-sulfonamide or (1S,2S)-1-(5-chloropyrimidin-2-yl)-N-(5-((1S,2R)-2-(difluoromethyl)cyclobutyl)-4-(2,6-dimethoxypyrimidin-5-yl)-4H-1,2,4-triazol-3-yl)-1-isopropoxypropane-2-sulfonamide] and COc1ncnc(OC)c1-n1c(NS(=O)(=O)[C@@H](C)[C@H](OC)c2ncc(Cl)cn2)nnc1[C@H]1CC[C@H]1C (single isomer, unassigned) [Example 188.0, (1R,2S)-1-(5-chloropyrimidin-2-yl)-N-(4-(4,6-dimethoxypyrimidin-5-yl)-5-((1S,2R)-2-methylcyclobutyl)-4H-1,2,4-triazol-3-yl)-1-methoxypropane-2-sulfonamide or (1R,2S)-1-(5-chloropyrimidin-2-yl)-N-(4-(4,6-dimethoxypyrimidin-5-yl)-5-((1R,2S)-2-methylcyclobutyl)-4H-1,2,4-triazol-3-yl)-1-methoxypropane-2-sulfonamide] are within 1.5-fold of each other in EC50: 13 nM for the first, 14 nM for the second.

Going from COc1ncnc(OC)c1-n1c(NS(=O)(=O)[C@@H](C)[C@@H](OC(C)C)c2ncc(Cl)cn2)nnc1[C@@H]1CC[C@@H]1C(F)F (single isomer, unassigned) [Example 168.0, (1S,2S)-1-(5-chloropyrimidin-2-yl)-N-(5-((1R,2S)-2-(difluoromethyl)cyclobutyl)-4-(4,6-dimethoxypyrimidin-5-yl)-4H-1,2,4-triazol-3-yl)-1-isopropylpropane-2-sulfonamide or (1S,2S)-1-(5-chloropyrimidin-2-yl)-N-(5-((1S,2R)-2-(difluoromethyl)cyclobutyl)-4-(4,6-dimethoxypyrimidin-5-yl)-4H-1,2,4-triazol-3-yl)-1-isopropoxypropane-2-sulfonamide] to COc1cccc(OC)c1-n1c(NS(=O)(=O)[C@@H](C)[C@@H](OC(C)C)c2ncc(C)cn2)nnc1[C@@H]1CCC(=O)C1 (single isomer, unassigned) [Example 229.0, (1S,2S)-N-(4-(2,6-dimethoxyphenyl)-5-((R)-3-oxocyclopentyl)-4H-1,2,4-triazol-3-yl)-1-isopropoxy-1-(5-methylpyrimidin-2-yl)propane-2-sulfonamide or (1S,2S)-N-(4-(2,6-dimethoxyphenyl)-5-((S)-3-oxocyclopentyl)-4H-1,2,4-triazol-3-yl)-1-isopropoxy-1-(5-methylpyrimidin-2-yl)propane-2-sulfonamide], the EC50 rises from 8 nM to 30 nM (3.8-fold).

Compared with COc1cccc(OC)c1-n1c(NS(=O)(=O)[C@@H](C)[C@H](OC)c2ncc(Cl)cn2)nnc1C12CC(C1)C2 [Example 217.0], COc1cccc(OC)c1-n1c(NS(=O)(=O)[C@@H](C)[C@H](C)c2ncc(Cl)cn2)nnc1C1CCC1 [Example 143.0] is 1.8-fold lower in EC50: 7.4 nM for the first, 4.1 nM for the second. The second is the more potent here.

First: CO[C@H](c1ncc(Cl)cn1)[C@H](C)S(=O)(=O)Nc1nnc([C@H]2C[C@H](CO)C2)n1C1CC1 (single isomer, unassigned) [Example 135.0, (1R,2S)-1-(5-chloro-2-pyrimidinyl)-N-(4-cyclopropyl-5-(trans-3-(hydroxymethyl)cyclobutyl)-4H-1,2,4-triazol-3-yl)-1-methoxy-2-propanesulfonamide or (1R,2S)-1-(5-chloro-2-pyrimidinyl)-N-(4-cyclopropyl-5-(cis-3-(hydroxymethyl)cyclobutyl)-4H-1,2,4-triazol-3-yl)-1-methoxy-2-propanesulfonamide]
Second: COc1ncnc(OC)c1-n1c(NS(=O)(=O)[C@@H](C)[C@H](OC)c2ncc(Cl)cn2)nnc1[C@H]1CC[C@@H](C(F)(F)F)CC1 (single isomer, unassigned) [Example 172.0, (1R,2S)-1-(5-chloropyrimidin-2-yl)-N-(4-(4,6-dimethoxypyrimidin-5-yl)-5-((1s,4R)-4-(trifluoromethyl)cyclohexyl)-4H-1,2,4-triazol-3-yl)-1-methoxypropane-2-sulfonamide or (1R,2S)-1-(5-chloropyrimidin-2-yl)-N-(4-(4,6-dimethoxypyrimidin-5-yl)-5-((1r,4S)-4-(trifluoromethyl)cyclohexyl)-4H-1,2,4-triazol-3-yl)-1-methoxypropane-2-sulfonamide]
The EC50 of the first is 4.9-fold higher: 1810 nM for the first, 370 nM for the second.
